Results from patent US12569563B2, “Selective HDAC6 degraders and methods of use thereof” (DANA-FARBER CANCER INSTITUTE, INC., priority 2019, dated 2026).

Target: T1, CRBN (Homo sapiens, UniProt Q96SW2)
T1 construct: endogenous in cells; host or cells: Flp-In 293 cells stably expressing BRD4BD2-eGFP-P2A-mCherry
Assay: Cellular CRBN engagement assay (competition with dBET6, BRD4BD2-eGFP reporter)
Type: cell-based
Details: Flip-In 293 BRD4BD2-eGFP cells, 100 nM dBET6, 5 h
Source text: The cellular CRBN engagement assay measures the cellular binding affinity which is the combination of the compound's cell permeability and their binding affinity to CRBN. This is done by measuring the ability of thalidomide-based degrader molecules to compete with pan-BET bromodomain degrader dBET6 (Nowak et al., Nat. Chem. Biol. 14:706-714 (2018)) for CRBN binding in cells. If no degrader compound is present in the cell, BRD4BRD2-eGFP is degraded by dBET6 via the proteasome system. […]
Cells were seeded at 30-50% confluency in either 24, 48 or 96 well plates (3524, 3548, 3596 respectively, Costar) a day before compound treatment. The inventive compounds were titrated in the presence of 100 nM dBET6 and then were incubated with cells for 5 h following trypsinization and resuspension in DMEM media, transferred into 96-well plates (353910, Falcon®) and analyzed by flow cytometer (Guava® easyCyte™ HT, Millipore®). Signal from at least 3000 events per well was acquired and the eGFP and mCherry florescence monitored. Data was analyzed using FlowJo® (FlowJo®, LCC). Forward and side scatter outliers, frequently associated with cell debris, were removed leaving >90% of total cells, followed by removal of eGFP and mCherry signal outliers, leaving 88-90% of total cells creating the set used for quantification. […]

IC50: 5.37 µM
Structure (SMILES): CN(C(=O)CCCCCNc1cccc2c1C(=O)N(C1CCC(=O)NC1=O)C2=O)c1ccc(NC(=O)CCCCCCC(=O)NO)cc1 (stereo not shown) [Compound 2, N^1-(4-(6-((2-(2,6-dioxopiperidin-3-yl)-1,3-dioxoisoindolin-4-yl)amino)-N-methylhexanamido)phenyl)-N^8-hydroxyoctanediamide]
